Source: patent publication US11702404B2, “GLP-1R modulating compounds” (priority 2019, dated 2023)
Read-outs that look alike come from different tables or passages of the source.

Columns and labels:
GLP-1R = GLP-1R (Homo sapiens, UniProt P43220); assay: GLP-1R activation: cAMP increase in CHO cells stably expressing GLP-1R; assay type: cell-based; conditions: read-out: EC50
[1] = Microsomal stability, human liver microsomes (predicted hepatic clearance); conditions: predicted from in vitro microsomal stability data
[2] = cAMP increase, CHO cells stably expressing GLP-1R, 10 point dose response, 30 minutes incubation

GLP-1R, sequence (P43220 24-463): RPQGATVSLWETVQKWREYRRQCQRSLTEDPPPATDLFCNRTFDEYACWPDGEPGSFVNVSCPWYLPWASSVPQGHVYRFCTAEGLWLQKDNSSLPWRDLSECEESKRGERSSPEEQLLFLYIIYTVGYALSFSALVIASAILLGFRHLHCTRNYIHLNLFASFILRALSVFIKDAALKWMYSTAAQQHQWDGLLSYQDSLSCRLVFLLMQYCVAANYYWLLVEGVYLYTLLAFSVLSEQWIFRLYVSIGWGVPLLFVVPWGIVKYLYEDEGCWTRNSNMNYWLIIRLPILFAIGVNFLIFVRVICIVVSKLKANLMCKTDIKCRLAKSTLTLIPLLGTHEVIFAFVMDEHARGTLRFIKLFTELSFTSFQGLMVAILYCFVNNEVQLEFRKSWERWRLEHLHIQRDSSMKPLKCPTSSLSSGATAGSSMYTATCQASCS

| SMILES | EC50 (GLP-1R; [2]) [nM] | Predicted Hepatic Clearance (Pred. Cl.) [1] [mL/min/kg] | EC50 (GLP-1R) [nM] |
| --- | --- | --- | --- |
| COCCn1c(Cc2cc(F)c(-c3ccc(OC)c(OCc4ccc(C#N)cc4F)n3)cc2F)nc2ccc(C(=O)O)cc21 [Example 541, 2-(4-(6-((4-cyano-2-fluorobenzyl)oxy)-5-methoxypyridin-2-yl)-2,5-difluorobenzyl)-1-(2-methoxyethyl)-1H-benzo[d]imidazole-6-carboxylic acid] | 28.3 | 3.67 |  |
| COCCn1c(Cc2cc(F)c(-c3cccc(OCc4ccc(-n5cccn5)nc4)n3)cc2F)nc2ccc(C(=O)O)cc21 [Example 865] | 29.8 | 4.33 |  |
| COC(CN)Cn1c(Cc2ccc(-c3cccc(OCc4ccc(C#N)cc4F)n3)cc2F)nc2ccc(C(=O)O)cc21 (single isomer, unassigned) [Example 340, 1-(3-amino-2-methoxypropyl)-2-(4-(6-((4-cyano-2-fluorobenzyl)oxy)pyridin-2-yl)-2-fluorobenzyl)-1H-benzo[d]imidazole-6-carboxylic acid] | 44.1 | <1.83 |  |
| N#Cc1ccc(COc2ncc(F)c(-c3cc(F)c(Cc4nc5ccc(C(=O)O)cc5n4C[C@@H]4CCO4)cc3F)n2)c(F)c1 [Example 879, 2-[[4-[2-[(4-cyano-2-fluoro-phenyl)methoxy]-5-fluoro-pyrimidin-4-yl]-2,5-difluoro-phenyl]methyl]-3-[[(2S)-oxetan-2-yl]methyl]benzimidazole-5-carboxylic acid] | 0.51 | 6 |  |
| COCCn1c(Cc2ccc(-c3ccccc3OCc3ccc(C#N)cc3F)cc2F)nc2ccc(C(=O)O)cc21 [Example 182, 2-((2′-((4-cyano-2-fluorobenzyl)oxy)-3-fluoro-[1,1′-biphenyl]-4-yl)methyl)-1-(2-methoxyethyl)-1H-benzo[d]imidazole-carboxylic acid] | 449 | 7.67 |  |
| COCCn1c(Cc2ccc(-c3cccc(OCc4cccc(C(C)C)c4F)n3)cc2F)nc2ccc(C(=O)O)cc21 [Example 158, 2-(2-fluoro-4-(6-((2-fluoro-3-isopropylbenzyl)oxy)pyridin-2-yl)benzyl)-1-(2-methoxyethyl)-1H-benzo[d]imidazole-6-carboxylic acid] | 37.1 | 3.83 |  |
| NC(=O)c1ccc(COc2cccc(-c3cc(F)c(Cc4nc5ccc(C(=O)O)cc5n4C[C@@H]4CCO4)cc3F)n2)c(OC(F)F)n1 [Example 857, (S)-2-(4-(6-((6-carbamoyl-2-(difluoromethoxy)pyridin-3-yl)methoxy)pyridin-2-yl)-2,5-difluorobenzyl)-1-(oxetan-2-ylmethyl)-1H-benzo[d]imidazole-6-carboxylic acid] | 0.35 | 3.17 |  |
| COCCn1c(Cc2ccc(-c3cccc(OCc4ccccc4COC)n3)cc2F)nc2ccc(C(=O)O)cc21 [Example 496, 2-(2-fluoro-4-(6-((2-(methoxymethyl)benzyl)oxy)pyridin-2-yl)benzyl)-1-(2-methoxyethyl)-1H-benzo[d]imidazole-6-carboxylic acid] | 2000 | 18.2 |  |
| N#Cc1ccc(COc2cccc(-c3ccc(Cc4nc5ccc(C(=O)O)cc5n4CC4CCC4)c(F)c3)n2)c(F)c1 [Example 382, 2-(4-(6-((4-cyano-2-fluorobenzyl)oxy)pyridin-2-yl)-2-fluorobenzyl)-1-(cyclobutylmethyl)-1H-benzo[d]imidazole-6-carboxylic acid] | 8.7 | <1.83 |  |
| O=C(O)c1cc(F)c2nc(Cc3cc(F)c(-c4cccc(OCc5ccc(Cl)nc5)n4)cc3F)n(C[C@@H]3CCO3)c2c1 [Example 658] | 0.11 | 3 |  |
| CC(=O)N1CCC[C@@H]1Cn1c(Cc2cc(F)c(-c3cccc(OCc4ccc(C#N)cc4F)n3)cc2F)nc2ccc(C(=O)O)cc21 [Example 591, (R)-1-((1-acetylpyrrolidin-2-yl)methyl)-2-(4-(6-((4-cyano-2-fluorobenzyl)oxy)pyridin-2-yl)-2,5-difluorobenzyl)-1H-benzo[d]imidazole-6-carboxylic acid] |  | 7 | 0.17 |
| N#Cc1ccc(COc2cccc(-c3cc(=O)n(Cc4nc5ccc(C(=O)O)cc5n4C[C@@H]4CCO4)cc3F)n2)c(F)c1 [Example 540, (S)-2-((6-((4-cyano-2-fluorobenzyl)oxy)-5′-fluoro-2′-oxo-[2,4′-bipyridin]-1′(2′H)-yl)methyl)-1-(oxetan-2-ylmethyl)-1H-benzo[d]imidazole-6-carboxylic acid] | 0.12 | 3.33 |  |
| COCCn1c(Cc2ccc(-c3cccc(OCc4ccc(C5(C#N)CC5)cc4)n3)cc2F)nc2ccc(C(=O)O)cc21 [Example 266, 2-(4-(6-((4-(1-cyanocyclopropyl)benzyl)oxy)pyridin-2-yl)-2-fluorobenzyl)-1-(2-methoxyethyl)-1H-benzo[d]imidazole-6-carboxylic acid] | 51.4 | 6.17 |  |
| N#CCC1(Cn2c(Cc3ccc(-c4ccnc(OCc5ccc(C#N)cc5F)n4)c(F)c3)nc3ccc(C(=O)O)cc32)CC1 [Example 281, 2-(4-(2-((4-cyano-2-fluorobenzyl)oxy)pyrimidin-4-yl)-3-fluorobenzyl)-1-((1-(cyanomethyl)cyclopropyl)methyl)-1H-benzo[d]imidazole-6-carboxylic acid] | 2.3 | 6.7 |  |
| N#Cc1ccc(COc2cccc(-c3ccc(Cc4nc5ccc(C(=O)O)cc5n4CC4(CF)CC4)c(C#N)c3)n2)c(F)c1 [Example 286, 2-(2-cyano-4-(6-((4-cyano-2-fluorobenzyl)oxy)pyridin-2-yl)benzyl)-1-((1-(fluoromethyl)cyclopropyl)methyl)-1H-benzo[d]imidazole-6-carboxylic acid] | 21.2 | 2.62 |  |
| COCCn1c(Cc2cc(F)c(-c3cccc(OCc4cccc(-c5cnn(C)c5)c4)n3)cc2F)nc2ccc(C(=O)O)cc21 [Example 913] | 112 | 3.83 |  |
| CS(=O)(=O)N1CCC[C@@H]1Cn1c(Cc2cc(F)c(-c3cccc(OCc4ccc(C#N)cc4F)n3)cc2F)nc2ccc(C(=O)O)cc21 [Example 735] |  | 7.17 | 1.7 |
| N#Cc1ccc(COc2cccc(-c3cc(F)c(Cc4nc5ccc(C(=O)O)cc5n4CCN4CCOCC4)cc3F)n2)c(F)c1 [Example 561, 2-(4-(6-((4-cyano-2-fluorobenzyl)oxy)pyridin-2-yl)-2,5-difluorobenzyl)-1-(2-morpholinoethyl)-1H-benzo[d]imidazole-6-carboxylic acid] |  | 9.5 | 24.1 |
| CC(C)(C#N)Cn1c(Cc2ccc(-c3cccc(OCc4ccc(C#N)cc4F)n3)c(F)c2)nc2ccc(C(=O)O)cc21 [Example 279, 2-(4-(6-((4-cyano-2-fluorobenzyl)oxy)pyridin-2-yl)-3-fluorobenzyl)-1-(2-cyano-2-methylpropyl)-1H-benzo[d]imidazole-6-carboxylic acid] | 3.07 | 8.3 |  |
| COCCn1c(Cc2ccc(-c3cc(OCc4ccc(C#N)cc4F)ccc3F)cc2F)nc2ccc(C(=O)O)cc21 [Example 28, 2-((5′-((4-cyano-2-fluorobenzyl)oxy)-2′,3-difluoro-[1,1′-biphenyl]-4-yl)methyl)-1-(2-methoxyethyl)-1H-benzo[d]imidazole-6-carboxylic acid] | 94 | 3.17 |  |
| N#Cc1cc(F)c(COc2nc(-c3ccc(Cc4nc5ccc(C(=O)O)cc5n4C[C@@H]4CCO4)cc3F)ccc2F)cc1F [Example 676] | 0.52 | 2.33 |  |
| COCCn1c(Cc2ccc(-c3cccc(OCc4ccc(C#N)c(F)c4OC)n3)cc2F)nc2ccc(C(=O)O)cc21 [Example 363, 2-(4-(6-((4-cyano-3-fluoro-2-methoxybenzyl)oxy)pyridin-2-yl)-2-fluorobenzyl)-1-(2-methoxyethyl)-1H-benzo[d]imidazole-6-carboxylic acid] | 8.96 | 7.75 |  |
| O=C(O)c1ccc2nc(Cc3cc(F)c(-c4ccnc(OCc5ccc(C(F)F)cc5F)n4)cc3F)n(CC34CC(CO3)C4)c2c1 [Example 671] | 1.76 | 1.83 |  |
| COCCn1c(Cc2ccc(-c3cccc(OCc4cccc(OC(F)F)c4F)n3)cc2F)nc2ccc(C(=O)O)cc21 [Example 138, 2-(4-(6-((3-(difluoromethoxy)-2-fluorobenzyl)oxy)pyridin-2-yl)-2-fluorobenzyl)-1-(2-methoxyethyl)-1H-benzo[d]imidazole-6-carboxylic acid] | 84.7 | 7.5 |  |
| CC1(C)CC(Cn2c(Cc3ccc(-c4cccc(OCc5ccc(C#N)cc5F)n4)cc3F)nc3ccc(C(=O)O)cc32)O1 (single isomer, unassigned) [Example 905, 2-(4-(6-((4-cyano-2-fluorobenzyl)oxy)pyridin-2-yl)-2-fluorobenzyl)-1-((4,4-dimethyloxetan-2-yl)methyl)-1H-benzo[d]imidazole-6-carboxylic acid] | 30.9 | 4.33 |  |
| N#Cc1ccc(COc2cccc(-c3cc(F)c(Cc4nc5ccc(C(=O)O)cc5n4CCNc4ccccc4)cc3F)n2)c(F)c1 [Example 895] |  | 8 | 79.9 |
| Cn1nnc(Cn2c(Cc3ccc(-c4cccc(OCc5ccc(C#N)cc5F)n4)cc3F)nc3ccc(C(=O)O)cc32)n1 [Example 226, 2-(4-(6-((4-cyano-2-fluorobenzyl)oxy)pyridin-2-yl)-2-fluorobenzyl)-1-((2-methyl-2H-tetrazol-5-yl)methyl)-1H-benzo[d]imidazole-6-carboxylic acid] | 139 | 3.67 |  |
